# Patent publication US11890288B2, “Sulfonamide or sulfinamide compound having effect of inducing BRD4 protein degradation and pharmaceutical use thereof” (MITSUBISHI TANABE PHARMA CORPORATION, priority 2020, dated 2024)
# Like-named read-outs stand apart in the source and are kept apart here. Marks after values point to notes of the source that are not given here.
# Legend:
# [1] = system: human prostate cancer LNCaP cells; assay: Cytotoxic action on LNCaP cells (WST-8, 96 hr); type: cell-based; conditions: 96 hr culture
# In short: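 IC50 values reflect 50% cell survival relative to untreated cells, interpolated linearly between the two concentrations that bracket it. Survival was read by WST-8 after 96 hr of compound treatment of cells grown in 10% FBS/RPMI1640 at 37° C.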
# BRD4 protein [2] = target: T1, BRD4 protein (Homo sapiens (Human), UniProt O60885); assay: BRD4 protein degradation inducing action in LNCaP cells (immunofluorescence, 6 hr); type: cell-based; conditions: anti-BRD4 fluorescence intensity
# In short: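 LNCaP cells in 10% FBS/RPMI1640 exposed to compound for 6 hr, fixed, permeabilized and immunostained for BRD4 with Alexa Fluor 546 secondary; fluorescence (ex 560, em 572 nm) read by imaging. DC50 = concentration giving 50% of untreated signal, interpolated linearly between the two bracketing points.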
# [3] = system: human acute myeloid leukemia MV-4-11 cell transplanted mouse; assay: Antitumor effect of 1 week intermittent administration to MV-4-11 cell transplanted mouse (tail vein, days 1 and 8); type: in vivo; conditions: tumor weight on day 15
# Protocol: The in vivo antitumor effect of the compound of the present invention was studied using human acute myeloid leukemia MV-4-11 cell transplanted mouse. MV-4-11 cells were subcutaneously transplanted into the inguinal region of male, 6-week-old BALB/c nude mouse (5×10^6 cells/mouse). The compound of the present invention was administered into the tail vein on days 1 and 8 from the time point when the assumed tumor volume determined from ½ab^2 (a is major axis and b is minor axis of tumor) reached about 200 mm^3 (day 1). The control group was administered with a solvent, 10% Kolliphor ELP/5% ethanol/85% saline solution. On day 15, the tumor was isolated, the weight was measured, and the tumor growth inhibitory rate IR (%) was calculated by the following formula. tumor growth inhibitory rate IR (%)={1−(average tumor weight of administration group/average tumor weight of nonadministration control group)}×100(%)
# [4] = system: Human breast cancer MDA-MB-436 cells; assay: Cytotoxic action on MDA-MB-436 cells (WST-8, 96 hr); type: cell-based
# Protocol: (§1) The cytotoxic action of the compound of the present invention against cancer cells that acquired resistance to conventional BRD4 protein degradation inducing agents was evaluated in vitro. In this experiment, ARV-771 (Proc Natl Acad Sci USA. volume 113, pages 7124-7129 (28 Jun. 2016)) and MZ1 (ACS Chem Biol. Volume 10, pages 1770-1777 (21 Aug. 2015)), in which a ligand for VHL and BRD4 protein inhibitor are linked, were used as a conventional BRD4 protein degradation inducing agent serving as a comparison control. Human breast cancer MDA-MB-436 cells and MDA-MB-436 cells that acquired resistance to conventional BRD4 protein degradation inducing agents (MDA-MB-436 w/o2 cells) were suspended in 10% FBS/RPMI1640, seeded in a 96 well plate and cultured at 5% CO2, 37° C. overnight. A test compound dissolved in DMSO was diluted with 10% FBS/RPMI1640 and added and the cells were further cultured for 96 hr. After culturing, the viable cell number was measured using a cell number measurement WST-8 kit (Kishida Chemical Co., Ltd.). As a control, the measurement was performed under conditions free of the test compound. The cytotoxic activity of the compound of the present invention against each cell is shown in IC50 value in Table 4. The IC50 value is a concentration of the compound showing 50% cell survival rate when the cell survival rate thereof under compound untreated condition is 100%. It was calculated from the straight line connecting the cell survival rate at two points enclosing the 50% cell survival rate and the compound concentration. In addition, the tolerance (fold) was calculated by dividing the IC50 value in MDA-MB-436 w/o2 cells by the IC50 value in MDA-MB-436 cells.
# MDA-MB-436 w/o2 cells = assay: Cytotoxic action on MDA-MB-436 w/o2 cells that acquired resistance to conventional BRD4 degraders (WST-8, 96 hr); type: cell-based, human; conditions: for resistance: IC50 in MDA-MB-436 w/o2 cells divided by IC50 in MDA-MB-436 cells; for IC50: MDA-MB-436 w/o2 cells, 96 hr; for resistance of MDA-MB-436 w/o2 cells to the substance (in words): MDA-MB-436 w/o2 versus MDA-MB-436 cells
# Protocol: as §1
# BRD4 protein [5] = target: T1, BRD4 protein; assay: BRD4 protein degradation inducing action in MDA-MB-436 cells (Western blot, 6 hr); type: cell-based; conditions: MDA-MB-436 cell
# Protocol: (§2) The BRD4 protein degradation inducing action of the compound of the present invention on the cancer cells that acquired resistance to conventional BRD4 protein degradation inducing agents was evaluated in vitro. In this experiment, ARV-771 and MZ1, in which a ligand for VHL and BRD4 protein inhibitor are linked, were used as a conventional BRD4 protein degradation inducing agent serving as a comparison control. Human breast cancer MDA-MB-436 cells and MDA-MB-436 cells that acquired resistance to conventional BRD4 protein degradation inducing agents (MDA-MB-436 w/o2 cells) were suspended in 10% FBS/RPMI1640, seeded in a 6 well plate and cultured at 5% CO2, 37° C. overnight. A test compound dissolved in DMSO was diluted with 10% FBS/RPMI1640 and added and the cells were further cultured for 6 hr. After culturing, the cells were lysed in a solubilizing solution (10 mM Tris-HCl, pH 7.4, 0.1% NP-40, 0.1% sodium deoxycholate, 0.1% SDS, 0.15 M NaCl, 1 mM EDTA, 10 μg/mL aprotinin). The solution was electrophoresed and proteins in acrylamide gel were transferred to Immobilon PVDF membrane using a semi-dry transfer device. […] After immersing in a secondary antibody solution for 1 hr, the object protein on the membrane was detected using ECL Prime Western Blotting Detection System or ECL Select Western Blotting Detection System (GE Healthcare).
# BRD4 protein [6] = target: T1, BRD4 protein; assay: BRD4 protein degradation inducing action in MDA-MB-436 w/o2 cells (Western blot, 6 hr); type: cell-based; conditions: MDA-MB-436 w/o2 cell
# Protocol: as §2
"degradation of BRD4 protein (Western blot, FIG. 1) (BRD4 protein [5])","degradation of BRD4 protein (Western blot, FIG. 1) (BRD4 protein [6])",SMILES,IC50 [1] [nM],DC50 (BRD4 protein [2]) [nM],tumor growth inhibitory rate ([3]; 4 mg/kg/day),tumor growth inhibitory rate ([3]; 12.5 mg/kg/day),IC50 [4] [nM],resistance (MDA-MB-436 w/o2 cells) [fold],IC50 (MDA-MB-436 w/o2 cells) [nM],resistance of MDA-MB-436 w/o2 cells to the substance (in words) (MDA-MB-436 w/o2 cells),IC50 ([4]; Homo sapiens) [nM],IC50 (MDA-MB-436 w/o2 cells; Homo sapiens) [nM]
induced degradation of BRD4 protein,did not induce degradation,"Cc1ncsc1-c1ccc(CNC(=O)[C@@H]2C[C@@H](O)CN2C(=O)[C@@H](NC(=O)COCCOCCOCCNC(=O)C[C@@H]2N=C(c3ccc(Cl)cc3)c3c(sc(C)c3C)-n3c(C)nnc32)C(C)(C)C)cc1 [MZ1, reference compound]",–,–,–,–,1900,>26,> 50000,showed resistance,–,–
induced degradation of BRD4 protein,did not induce degradation,"Cc1ncsc1-c1ccc([C@H](C)NC(=O)[C@@H]2C[C@@H](O)CN2C(=O)[C@@H](NC(=O)COCCCOCCNC(=O)C[C@@H]2N=C(c3ccc(Cl)cc3)c3c(sc(C)c3C)-n3c(C)nnc32)C(C)(C)C)cc1 [ARV-771, reference compound]",–,–,–,–,5.6,150,860,showed resistance,–,–

# Continued, compound first:
SMILES,"degradation of BRD4 protein (Western blot, FIG. 1) (BRD4 protein [5])","degradation of BRD4 protein (Western blot, FIG. 1) (BRD4 protein [6])",IC50 [1] [nM],DC50 (BRD4 protein [2]) [nM],tumor growth inhibitory rate ([3]; 4 mg/kg/day),tumor growth inhibitory rate ([3]; 12.5 mg/kg/day),IC50 [4] [nM],resistance (MDA-MB-436 w/o2 cells) [fold],IC50 (MDA-MB-436 w/o2 cells) [nM],resistance of MDA-MB-436 w/o2 cells to the substance (in words) (MDA-MB-436 w/o2 cells),IC50 ([4]; Homo sapiens) [nM],IC50 (MDA-MB-436 w/o2 cells; Homo sapiens) [nM]
"CCc1ccc(NS(=O)(=O)c2ccc([C@@H](C)NC(=O)c3cnc(-c4ccc(C5=N[C@@H](CC(=O)OC)c6nnc(C)n6-c6sc(C)c(C)c65)cc4)cn3)cc2)c2[nH]cc(C#N)c12 [Example 106, methyl {(6S)-4-[4-(5-{[(1R)-1-{4-[(3-cyano-4-ethyl-1H-indol-7-yl)sulfamoyl]phenyl}ethyl]carbamoyl}pyrazin-2-yl)phenyl]-2,3,9-trimethyl-6H-thieno[3,2-f][1,2,4]triazolo[4,3-a][1,4]diazepin-6-yl}acetate]",–,–,0.079,0.059,96** %,98** %,–,–,–,–,–,–
"COC(=O)C[C@@H]1N=C(c2ccc(-c3ccc(C(=O)NCc4ccc(S(=O)(=O)Nc5ccc(C)c6c(C#N)c[nH]c56)cc4)nc3)cc2)c2c(sc(C)c2C)-n2c(C)nnc21 [Example 53, methyl [(6S)-4-(4-{6-[({4-[(3-cyano-4-methyl-1H-indol-7-yl)sulfamoyl]phenyl}methyl)carbamoyl]pyridin-3-yl}phenyl)-2,3,9-trimethyl-6H-thieno[3,2-f][1,2,4]triazolo[4,3-a][1,4]diazepin-6-yl]acetate]",–,–,0.16,0.078,–,–,–,1.5,–,–,0.21,0.32
"CCc1ccc(NS(=O)(=O)c2ccc(CNC(=O)c3ccc(-c4ccc(C5=N[C@@H](CC(=O)OC)c6nnc(C)n6-c6sc(C)c(C)c65)cc4)cc3)cc2)c2[nH]cc(C#N)c12 [Example 43, methyl [(6S)-4-{4′-[({4-[(3-cyano-4-ethyl-1H-indol-7-yl)sulfamoyl]phenyl}methyl)carbamoyl][1,1′-biphenyl]-4-yl}-2,3,9-trimethyl-6H-thieno[3,2-f][1,2,4]triazolo[4,3-a][1,4]diazepin-6-yl]acetate]",–,–,0.23,0.12,–,–,–,1.3,–,–,0.34,0.42
"COC(=O)C[C@@H]1N=C(c2ccc(-c3ccc(C(=O)NCc4ccc(S(=O)(=O)Nc5ccc(C)c6c(C#N)c[nH]c56)cc4)c(F)c3F)cc2)c2c(sc(C)c2C)-n2c(C)nnc21 [Example 74, methyl [(6S)-4-{4′-[({4-[(3-cyano-4-methyl-1H-indol-7-yl)sulfamoyl]phenyl}methyl)carbamoyl]-2′,3′-difluoro[1,1′-biphenyl]-4-yl}-2,3,9-trimethyl-6H-thieno[3,2-f][1,2,4]triazolo[4,3-a][1,4]diazepin-6-yl]acetate]",–,–,0.21,0.092,43** %,94** %,–,–,–,–,–,–
"COC(=O)C[C@@H]1N=C(c2ccc(-c3ccc(C(=O)NCc4ccc(S(=O)(=O)Nc5ccc(C)c6c(C#N)c[nH]c56)cc4)cc3Cl)cc2)c2c(sc(C)c2C)-n2c(C)nnc21 [Example 47, methyl [(6S)-4-{2′-chloro-4′-[({4-[(3-cyano-4-methyl-1H-indol-7-yl)sulfamoyl]phenyl}methyl)carbamoyl][1,1′-biphenyl]-4-yl}-2,3,9-trimethyl-6H-thieno[3,2-f][1,2,4]triazolo[4,3-a][1,4]diazepin-6-yl]acetate]",–,–,0.46,0.3,32* %,68** %,–,–,–,–,–,–
"COC(=O)C[C@@H]1N=C(c2ccc(-c3ccc(C(=O)NCCc4ccc(S(=O)(=O)Nc5ccc(C)c6c(C#N)c[nH]c56)cc4)cc3F)cc2)c2c(sc(C)c2C)-n2c(C)nnc21 [Example 46, methyl [(6S)-4-{4′-[(2-{4-[(3-cyano-4-methyl-1H-indol-7-yl)sulfamoyl]phenyl}ethyl)carbamoyl]-2′-fluoro[1,1′-biphenyl]-4-yl}-2,3,9-trimethyl-6H-thieno[3,2-f][1,2,4]triazolo[4,3-a][1,4]diazepin-6-yl]acetate]",–,–,0.19,0.11,–,–,–,1.3,–,–,0.2,0.26
